Reference: patent US20230355613A1, “METHODS FOR TREATING PANCREATIC DUCTAL ADENOCARCINOMA” (HEALTH RESEARCH, INC., priority 2022, published 2023)

What was measured:
Assay type in all cases: cell-based, human
HPNE cells = assay: Histone transcriptional read-through by RT-qPCR
Text: (§1) JTE-607 induces RD-histone read-through preferentially in PDAC cells. […] It was sought to validate this transcriptional read-through phenomena experimentally by RT-qPCR. Two RD- and two RI-histones that show differences beyond their 3′ end boundaries were picked for experimental validation (FIGS. 13A and 13B). PCR primers were designed to amplify different regions within and beyond the boundaries of the 3′-UTR (FIG. 13C). […] However, the effect of JTE-607 on transcriptional read-through in HPNE cells was minimal (FIG. 5A). […] Because stable long-term knockdown can force cells to adapt, it was asked whether short-term knockdown of CPSF3 can recapitulate JTE-607 effect on transcriptional read-through. […] Improperly processed histone mRNAs fail to be exported into the cytoplasm for translation, leading to decreased protein levels. […] Next, it was determined whether histone dysregulation might be transcriptionally mediated by dysregulation of transcription factors at the levels of APA or gene expression. MotifMap, an integrative genome-wide map of regulatory motif sites, was used to find putative transcription factors regulating expression of RD histones. 51 transcription factors that have strong binding sites (1000 bp upstream of transcription start site; FDR<0.05) within RD histone promoters (Table S3 (attached as a Large Table)) were found. However, these histone transcription factors are neither APA altered nor differentially expressed upon JTE-607 treatment (FIGS. 13G and 13H). Taken together, these findings indicate that JTE-607 decreases RD histone expression by promoting transcriptional read-through.
(§2) RNA isolation and quantitative PCR. Cells were lysed with TRIzol reagent. RNA was isolated using Direct-zol RNA Miniprep. cDNA was synthesized using iScript cDNA Synthesis Kit. qPCR was conducted with SYBR Green PCR primers mixed with iTaq Universal SYBR Green Supermix and run on CFX connect systems (Bio-Rad). Data were analyzed in Microsoft Excel and graphed using GraphPad Prism (v 9.3.0).

Panc1 cells [1] = assay: Histone transcriptional read-through by RT-qPCR
Text: as §1, §2

Panc1 cells [2] = assay: Micrococcal Nuclease (MNase) assay of chromatin condensation
Description: Therefore, a Micrococcal Nuclease (MNase) assay was performed to assess relative chromatin condensation. In this assay, protein-free DNA is digested by MNase, producing DNA fragmentation patterns that are indicators of whether chromatin is in a condensed or relaxed state. […] To assess chromatin destabilization in a living cell, the HeLa-TI cell line model that has a silenced GFP reporter within a heterochromatic region of the genome was utilized. […] Therefore, GFP expression in HeLa-TI cells was monitored upon JTE-607 treatment by both fluorescence microscopy and flow cytometry.
Micrococcal digestion. Micrococcal Nuclease (MNase) was performed as previously described. Briefly, cells were trypsinized, washed with 1×RSB buffer (10 mM Tris HCL, pH 7.6; 15 mM NaCl; 1.5 mM MgCl2) and pelleted at 1000 rpm for 4 minutes at room temperature. Cell pellets were resuspended in 1×RSB buffer with 1% TritonX-100, homogenized with a loose pestle (5 strokes) and centrifuged for 5 minutes at 2000 rpm at 4° C. Pellets were washed two times with 1 ml of buffer A (10 mM Tris HCL, pH 7.6; 15 mM NaCl; 60 mM KCl; 0.34 M Sucrose; 0.1% B-mercaptoethanol; 0.15 mM Spermine; 0.5 mM Spermidine; 0.25 mM PMSF) and nuclei were pelleted at 160 g for 10 minutes at 4° C. Nuclei were resuspended in 1.5 mL of buffer A supplemented with 1 mM of CaCl2). Nuclear suspensions (500 μL) were digested with 200 U/mL Micrococcal nuclease at 37° C. at different time points.

[3] = early or late time points (2 h, 24 h)

CCOC(=O)[C@H](Cc1ccccc1)NC(=O)c1cc(Cl)c(OCCN2CCN(C)CC2)c(Cl)c1O [JTE-607]
transcriptional read-through of RD histones (HPNE cells; 24 h treatment): minimal | transcriptional read-through of RI histones (HPNE cells; [3]): did not induce transcriptional read-through | transcriptional read-through of RD histones (Panc1 cells [1]; 24 h treatment, normalized to DMSO): up to −20 fold change | transcriptional read-through of RI histones (Panc1 cells [1]; [3]): did not induce transcriptional read-through | mononucleosomes released by MNase digestion (Panc1 cells [2]; after 30 minutes of incubation): ~4×10^3 normalized FU | chromatin digestion by MNase (Panc1 cells [2]; compared with DMSO-treated cells): rapid and complete chromatin digestion
